Assay results taken from patent US7151200B2, “Histamine receptor H3 modified transgenic mice” (Ortho-McNeil Pharmaceutical, Inc., priority 2001, dated 2006).
“Also recorded” adds a separate entry of the source. Where two headings read alike, the source gives them in different places.

Key:
[1] = system: H3 receptor; details: for binding detected: mouse brain homogenates (H3−/− by context), even at high (>100 nM) concentrations; for Kd: read-out: binding affinity, whole brain homogenates
Experimental: The mice were sacrificed by gas (CO2) and decapitated immediately. Brains were removed stored at −80° C. until use. The forebrain and the cerebellum tissue homogenized with a polytron in ice-cold 50 mM Na/K phosphate buffer, pH 7.5. The homogenates were centrifuged twice at 50,000×g for twenty minutes at 4° C.
The histamine H3 receptor binding was assayed by a modification of the method of Arrang et al. (1983) supra. Briefly, to examine inhibition curves, 0.4 ml aliquots of the suspensions (10 mg weight tissue) were incubated for sixty minutes at 25° C. with 1.5 nM [^3H]-R-alpha-MeHA. Specific binding was defined as that inhibited by 10 μM thioperamide. That reaction was terminated by addition of 5 ml of the ice-cold buffer and rapid filtration on a glass fiber filter (GF/B) pre-coated with 0.3% polyethyleneimine (Bruns et al., 1983). The filters were washed three times with 5 ml volumes of the ice-cold buffer, and the radioactivity trapped on the filters was counted in 10 ml of ScintiVerse (Fisher Scientific).

[2] = system: H3+/+ and H3−/− mice; test: Step-through passive avoidance test with scopolamine-induced amnesia; assay type: in vivo, mouse; details: scopolamine 0.75 mg/kg i.p. before first exposure, retest next day
Text: The apparatus consisted of two compartments; one (9.5×18.5×16 cm) being surrounded by a white wall and illuminated by a 60 watt lamp, and the other (9.5×18.5×16 cm) being dark surrounded by a black wall. The compartments were separated by a guillotine door (4.5 5 4.5 cm). All the mice were habituated to the dark chamber for sixty minutes prior to the test. On the first day of the passive avoidance test, wild-type and knockout mice were divided into two groups. One group of each genotype was injected with scopolamine (0.75 mg/kg, i.p., thirty minutes before the session) while the other groups were injected with biological saline, 0.9% (w/v) NaCl, ([…], i.p.). The mice were placed into the illuminated safe compartment for thirty seconds before being given free access to the dark box. The mice tended to escape into the dark compartment. When all four paws were on the grid floor of the dark compartment, a scrambled constant current foot shock (1 mA, constant voltage 120 V, 50 Hz) was delivered to the grid for one second. Then the mice were returned to their home cages. Twenty-four hours later, the procedure, without the electric shock, was repeated. The time that elapsed before each mouse entered the dark compartment was measured.

[3] = system: H3 receptor; assay type: in vivo, mouse
Experimental: Individually housed animals were maintained on a 12:12 light/dark (LD) cycle except in one study when the animals were transferred to constant darkness (DD). At three months of age, animals were implanted under deep anesthesia (ketamine 100 mg/kg and xylamine 10 mg/kg administered intraperitoneally) with EEG and EMG electrodes for sleep monitoring, and intraperitoneal biotelemetry transducers for the recording of body temperature and total locomotor activity. Two weeks after surgery and habituation to the recording chamber, body temperature and locomotor activity were monitored in baseline conditions for two consecutive days. In order to test the functional activity of H3 receptors, the effects of the H3 receptor antagonist thioperamide on sleep-wake states were examined. Mice were injected with saline one day, and thioperamide the next day. Injections occurred at the onset of the light phase and sleep EEG was recorded for the next six hours. A second group of H3+/+ and H3−/− mice were placed in running wheel cages at three months of age. Locomotor activity was recorded for three weeks under LD12:12 conditions and then the animals were transferred to constant darkness for two weeks.

[4] = H3+/+ mice, two-hour post injection period

With `NCCc1cnc[nH]1` [^3H-histamine] the binding detected [1] was “No binding could be detected”.

In the case of `CN1[C@@H]2C[C@@H](OC(=O)[C@H](CO)c3ccccc3)C[C@H]1[C@@H]1O[C@@H]12` [scopolamine], the “recall of aversive stimulus (amnesic effect) in passive avoidance” value ([2]; H3+/+ mice) is reported as “failed to recall the aversive stimulus” and the “response to amnesic effect in passive avoidance” value ([2]; H3−/− mice) is reported as “decreased sensitivity; also recorded: completely unresponsive to the amnesic effects”.

`[3H]CNCCc1cnc[nH]1` [^3H-N-α-methylhistamine] was tested, and the binding detected [1] was “No binding could be detected”.

`S=C(NC1CCCCC1)N1CCC(c2cnc[nH]2)CC1` [thioperamide] was tested, and the increase in waking ([3]; H3+/+ mice, first two hours after administration at lights on) was 55%, the “decrease in non-rapid eye movement (NREM) sleep” value [3, 4] was 61% and the “effect on REM sleep” value [3, 4] was “not affected”. For the same molecule, the “effects on sleep-wake status” value ([3]; H3−/− mice) was “no effects; also recorded: insensitive”.
